Test results published in patent publication US7129265B2, “Synergistic effects of amlodipine and atorvastatin metabolite as a basis for combination therapy” (priority 1999, dated 2006).

Key:
[1] = Small angle X-ray diffraction analysis of membrane bilayer structure; assay type: physicochemical; settings: drug to phospholipid 1:15; for overall membrane bilayer width, including surface hydration: without drug 55.5 Å
Method: The lipids (1-palmitoyl-2-oleoyl phosphatidylcholine and cholesterol) used for these samples were dissolved in HPLC-grade chloroform (10.0 mg/ml). Membrane vesicles were produced from these lipids by the same method as described for the peroxidation experiments. The final phospholipid concentration was 5.0 mg/ml buffer and the mole ratio of drug to phospholipid was 1:15. Membrane samples were oriented for diffraction analysis by subjecting them to centrifugation as previously described (Chester D W, Herbette L G, Mason R P, Joslyn A F, Triggle D J, Koppel D E. Diffusion of dihydropyridine calcium channel antagonists in cardiac sarcolemmal lipid multibilayers. Biophys. J. 1987; 52:1021–1030). Briefly, vesicles were placed in sedimentation cells that contained an aluminum foil substrate. The vesicles were sedimented in an SW-28 rotor (Beckman Instruments Fullerton, Calif.) at 35,000×g for 1.5 h at 5° C. Following centrifugation, the supernatant was removed from the pellets and the samples were then mounted on to curved glass supports. Samples were placed in sealed canisters to control relative humidity and temperature during the diffraction experiments, as previously described in detail (Chester D W, Herbette L G, Mason R P, Joslyn A F, Triggle D J, Koppel D E. Diffusion of dihydropyridine calcium channel antagonists in cardiac sarcolemmal lipid multibilayers. Biophys. J. 1987; 52: 1021–1030).
X-ray diffraction experiments were conducted by aligning the samples at grazing incidence with respect to a collimated, nickel-filtered monochromatic X-ray source (CuKα1.54 Å) produced by a high-brilliance rotating anode microfocus generator (Rigaku Rotaflex RU-200, Danvers, Mass.). The fixed geometry beam line consisted of a single, nickel-coated Franks mirror to define a line source where Kα and Kα are unresolved. […] The phases for the four-order data were determined by swelling analysis (Moody M F. X-ray diffraction pattern of nerve myelin: A method for determining the phases. Science 1963; 142:1173–117). […]

[2] = system: human LDL; assay: LDL oxidation determination (copper-induced, TBARS formation); assay type: biochemical; settings: 3.0 μM; 4 h incubation; copper 10.0 μM
Method: The ability of these agents to inhibit LDL peroxidation was assessed in vitro following addition of copper (10.0 μM) by measuring the levels of thiobarbituric reactive substances (TBARS), a marker of lipid peroxidation. […] The EDTA content of the LDL samples obtained from human plasma was removed by gel filtration with PD-10 Sephadex […] filtration columns; PBS (nitrogen purged) was used as the eluent. The LDL samples (50 μg of protein/mL) were then preincubated with or without drug (3.0 μM) for 30 mm at 37° C. Oxidation of LDL was then induced by the addition of 10.0 μM CuSO4. The time course of LDL oxidation, measured by TBARS formation, was followed for 6 h at 37° C. ([…]. Potentiation of free radical-induced lipid peroxidative injury to sarcolemmal membranes by lipid amphiphiles. J. Biol. Chem. 1986; 261:1153-1157). […] The protein content of the LDL was determined using the Coomassie Protein Plus assay kit from Pierce Chemical. A rapid and sensitive method for the quantitation of microgram quantities of protein utilizing the principle of protein-dye binding. Anal. Biochem. 1976; 72:248-254).

[3] = Membrane lipid peroxidation analysis (CHOD-Iodide assay) in membrane vesicles; assay type: biochemical
Method: In these experiments, oxidation occurred in a gradual, time-dependent manner that was measured spectrophotometrically over a 72 h period.
The separate and combined dose-dependent antioxidant activities of these agents were examined in membranes enriched with PUFA prepared at a 0.5 cholesterol to phospholipid mole ratio (Mason R P, Walter M F, Trumbore M W, Olmstead Jr. E G, Mason P E. Membrane antioxidant effects of the charged dihydropyridine calcium antagonist amlodipine. J. Mol Cell. Cardiol. 1999; 31:275–281). The lipid (dilinoleoyl phosphatidylcholine and cholesterol) used for these samples was dissolved in HPLC-grade chloroform (25.0 mg/ml). […]
Membrane lipid peroxidation was carried out at 37° C. in a shaking water bath without the addition of exogenous stimulants, as previously described in detail (Mason R P, Walter M F, Trumbore M W, Olmstead Jr. E G, Mason P E. Membrane antioxidant effects of the charged dihydropyridine calcium antagonist amlodipine. J. Mol. Cell. Cardiol. 1999; 31:275–281). […] The extent of membrane lipid peroxidation was measured by the CHOD-Iodide assay as previously described in detail (El-Saadani M, Esterbauer H, el-Sayed M, Goher M, Nassar A Y, Jurgens G. A spectrophotometric assay for lipid peroxides in serum lipoproteins using a commercially available reagent. J. Lipid. Res. 1989; 30:627–630). […]

Structure (SMILES) | effect on membrane dimensions, in words ([1]; includes intrabilayer headgroup separation) | overall membrane bilayer width, including surface hydration [1] [Å] | TBARS formation compared to control lipid peroxidation (100%) [2] [%] | inhibition of lipid peroxidation ([3]; 100.0 nM, membrane preparation enriched with cholesterol) [%] | persistence of antioxidant effect over time ([3]; 10.0 μM, incubation up to 72 h)
CCOC(=O)C1=C(COCCN)NC(C)=C(C(=O)OC)C1c1ccccc1Cl (stereo not shown) [AML, amlodipine besylate] | did not significantly alter membrane dimensions | 54.8 | 93.3±6 | – | –
CC(C)c1c(C(=O)Nc2ccccc2O)c(-c2ccccc2)c(-c2ccc(F)cc2)n1CCC(O)CC(O)CC(=O)O (stereo not shown) [ATM, ortho-hydroxy metabolite of atorvastatin] | – | 58.0 | 65.6±7 | 9 | –
Cc1c(C)c2c(c(C)c1O)CC[C@@](C)(CCC[C@H](C)CCC[C@H](C)CCCC(C)C)O2 [vitamin E, α-tocopherol] | – | – | – | – | could not be reproduced
